# US9745295B2, “Thiazole-substituted aminoheteroaryls as spleen tyrosine kinase inhibitors” (Merck Sharp & Dohme Corp., priority 2013, dated 2017)
# Molecular target: T1, recombinant human GST-SYK (Homo sapiens, UniProt P43405)
# T1 construct: purchased Carna Biosciences 08-176
# Assay: Homogeneous Time-Resolved Fluorescence (HTRF) assay for the recombinant human Syk enzyme
# Assay type: biochemical
# Details: recombinant human GST-SYK 5 pM, ATP 25 μM, read-out: rhSYK IC50
# Experimental: Homogeneous Time-Resolved Fluorescence (HTRF) Assay for the Recombinant Human Syk Enzyme
# A recombinant GST-hSYK fusion protein was used to measure potency of compounds to inhibit human Syk activity. The recombinant human GST-SYK (Carna Biosciences #08-176) (5 pM final concentration) was incubated with various concentrations of the inhibitor diluted in DMSO (0.1% final concentration) for 10 minutes at room temperature in 15 mM Tris-HCl (pH 7.5), 0.01% tween 20, 2 mM DTT in 384 well plate format. To initiate the reaction the biotinylated substrate peptide (250 nM final concentration) that contains the phosphorylation site for Syk was added with magnesium (5 mM final concentration) and ATP (25 μM final concentration). Final volume of the reaction was 10 μL. Phosphorylation of the peptide was allowed to proceed for 45′ at room temperature. To quench the reaction and detect the phosphorylated product, 2 nM of a Europium-anti-phosphotyrosine antibody (Perkin Elmer #AD0161) and 70 nM SA-APC (Perkin-Elmer #CR130-100) were added together in 15 mM Tris pH 7.5, 40 mM EDTA, 0.01% tween 20. Final volume of the quenching solution was 10 μL.
# The resulting HTRF signal was measured after 30 minutes on an EnVision (Perkin-Elmer) reader using a time-resolved fluorescence protocol. Table A below lists activities as IC50 values (nM) for representative compounds of the invention.
row,SMILES,IC50 [nM]
1,"Cc1cc(Nc2nccc(C(F)(F)F)n2)cc(-c2cnc(C3(O)CCC(C(=O)O)C(C)(C)C3)s2)n1 (single isomer, unassigned) [Example 1.9, (1S,4R or 1R,4S)-4-hydroxy-2,2-dimethyl-4-[5-(6-methyl-4-{[4-(trifluoromethyl)pyrimidin-2-yl]amino}pyridin-2-yl)-1,3-thiazol-2-yl] cyclohexane-carboxylic acid]",2.1
2,"Cc1cc(Nc2cnccn2)nc(-c2cnc([C@@]3(O)CC[C@H](C(=O)O)C(C)(C)C3)s2)c1 (single isomer, unassigned) [Example 3.8, (1S,4R or 1R,4S)-4-hydroxy-2,2-dimethyl-4-{5-[4-methyl-6-(pyrazin-2-ylamino)pyridin-2-yl]-1,3-thiazol-2-yl}cyclohexanecarboxylic acid]",0.608
3,"Cc1cc(Nc2cc(C(F)(F)F)ncn2)nc(-c2cnc([C@@]3(O)CC[C@H](C(=O)O)[C@H](C)C3)s2)c1 (single isomer, unassigned) [Example 1.4, rel-(1S,2R,4R or S)-4-hydroxy-2-methyl-4-[5-(4-methyl-6-{[6-(trifluoromethyl)pyrimidin-4-yl]amino}pyridin-2-yl)-1,3-thiazol-2-yl]cyclohexane-carboxylic acid]",0.475
4,"Cc1cc(Nc2cnccn2)nc(-c2cnc(C3(O)CCCc4cc(C(=O)O)ccc43)s2)c1 (single isomer, unassigned) [Example 2.6, (R or S)-5-hydroxy-5-{5-[4-methyl-6-(pyrazin-2-ylamino)pyridin-2-yl]-1,3-thiazol-2-yl}-5,6,7,8-tetrahydronaphthalene-2-carboxylic acid]",0.0289
5,"Cc1cc(Nc2cc(C(F)(F)F)ccn2)nc(-c2cnc(C3(O)CCC(C(=O)O)C(C)(C)C3)s2)n1 (single isomer, unassigned) [Example 1.11, (1S,4R or 1R,4S)-4-hydroxy-2,2-dimethyl-4-[5-(4-methyl-6-{[4-(trifluoromethyl)pyridin-2-yl]amino}pyrimidin-2-yl)-1,3-thiazol-2-yl] cyclohexane-carboxylic acid]",0.123
6,"Cc1cc(Nc2cncc(C(F)(F)F)n2)cc(-c2cnc(C3(O)CCC(C(=O)O)C(C)(C)C3)s2)c1 (single isomer, unassigned) [Example 2.4, (1S,4R or 1R,4S)-4-hydroxy-2,2-dimethyl-4-[5-(3-methyl-5-{[6-(trifluoromethyl)pyrazin-2-yl]amino}phenyl)-1,3-thiazol-2-yl]cyclohexane-carboxylic acid]",4200
7,OC1(c2ncc(-c3cncc(Nc4nccc(C(F)(F)F)n4)c3)s2)CCC1 [Example 2.3],189
8,"Cc1cc(Nc2cc(C(F)(F)F)ncn2)nc(-c2cnc(C3(O)CCCc4cc(C(=O)O)ccc43)s2)c1 (single isomer, unassigned) [Example 2.7, (R or S)-5-hydroxy-5-[5-(4-methyl-6-{[6-(trifluoromethyl)pyrimidin-4-yl]amino}pyridin-2-yl)-1,3-thiazol-2-yl]-5,6,7,8-tetrahydronaphthalene-2-carboxylic acid]",0.516
9,"Cc1cc(Nc2cc(C(F)(F)F)ncn2)nc(-c2cnc(C3(O)CCC(C(N)=O)C(C)(C)C3)s2)c1 (single isomer, unassigned) [Example 3.5, (1S,4R or 1R,4S)-4-hydroxy-2,2-dimethyl-4-[5-(4-methyl-6-{[6-(trifluoromethyl)pyrimidin-4-yl]amino}pyridin-2-yl)-1,3-thiazol-2-yl]cyclohexanecarboxamide]",0.562
10,"CCc1cc(Nc2cc(C)cc(-c3cnc(C4(O)CCCc5cc(C(=O)O)ccc54)s3)n2)ncn1 (single isomer, unassigned) [Example 2.11, (R or S)-5-(5-{6-[(6-ethylpyrimidin-4-yl)amino]-4-methylpyridin-2-yl}-1,3-thiazol-2-yl)-5-hydroxy-5,6,7,8-tetrahydronaphthalene-2-carboxylic acid]",0.0649

# Other lines, results leading:
row,IC50 [nM],SMILES
1,5.2,"CC(O)(c1ncc(-c2cc(Nc3nccc(C(F)(F)F)n3)cc(Cl)n2)s1)[C@H]1CC[C@H](C(=O)O)CC1 (single isomer, unassigned) [Example 4.23, (trans)-4-((R or S)-1-[5-(6-chloro-4-{[4-(trifluoromethyl)pyrimidin-2-yl]amino}pyridin-2-yl)-1,3-thiazol-2-yl]-1-hydroxyethyl} cyclohexanecarboxylic acid]"
2,73.6,"CCCCOC(=O)[C@H]1CC[C@H](C(C)(O)c2ncc(-c3cc(Nc4nccc(OC)n4)cc(C)n3)s2)CC1 (single isomer, unassigned) [Example 4.7, butyl (trans)-4-((R or S)-1-hydroxy-1-(5-{4-[(4-methoxypyrimidin-2-yl)amino]-6-methylpyridin-2-yl}-1,3-thiazol-2-yl)ethyl]cyclohexane carboxylate]"
3,111,"CCOc1cc(Nc2nccc(C(F)(F)F)n2)cc(-c2cnc(C3(O)CCC3)s2)n1 [Example 4.1, 1-(5-(6-Ethoxy-4-((4-(trifluoromethyl)pyrimidin-2-yl)amino)pyridin-2-yl)thiazol-2-yl)cyclobutanol]"
4,1.37,"Cc1cc(Nc2nccc(C(F)F)n2)cc(-c2cnc(C(C)(O)C3CCC(C(=O)O)CC3)s2)n1 (single isomer, unassigned) [Example 4.17, (trans)-4-((R or S)-{1-[5-(4-{[4-(difluoromethyl)pyrimidin-2-yl]amino}-6-methylpyridin-2-yl)-1,3-thiazol-2-yl]-1-hydroxyethyl}cyclo-hexanecarboxylic acid]"
5,1.82,"CC(O)(c1ncc(-c2cncc(Nc3cc(C(F)(F)F)ccn3)n2)s1)[C@H]1CC[C@H](C(=O)O)CC1 (single isomer, unassigned) [Example 4.12, (trans)-4-((R or S)-1-hydroxy-1-[5-(6-{[4-(trifluoromethyl)pyridin-2-yl]amino}pyrazin-2-yl)-1,3-thiazol-2-yl]ethyl}cyclohexane carboxylic acid]"
6,22.1,"Cc1cc(Nc2nccc(C)n2)cc(-c2cnc([C@@]3(O)CC[C@H](C(=O)O)C(C)(C)C3)s2)n1 (single isomer, unassigned) [Example 4.3, (1S,4R or 1R, 4S)-4-hydroxy-2,2-dimethyl-4-(5-{6-methyl-4-[(4-methylpyrimidin-2-yl)amino]pyridin-2-yl}-1,3-thiazol-2-yl)cyclohexanecarboxylic acid]"
7,14.5,"Cc1cc(Nc2cc(C)ccn2)cc(-c2cnc(C(C)(O)[C@H]3CC[C@H](C(=O)O)CC3)s2)c1 (single isomer, unassigned) [Example 4.14, (trans)-4-((R or S)-1-hydroxy-1-(5-{3-methyl-5-[(4-methylpyridin-2-yl)amino]phenyl}-1,3-thiazol-2-yl)ethyl]cyclohexane carboxylic acid]"
8,0.266,"Cc1cc(Nc2nccc(C(F)(F)F)n2)cc(-c2cnc(C(C)(O)[C@H]3CC[C@H](C(=O)O)CC3)s2)n1 (single isomer, unassigned) [Example 4.8, (trans)-4-((R or S)-1-hydroxy-1-[5-(6-methyl-4-{[4-(trifluoromethyl)pyrimidin-2-yl]amino}pyridin-2-yl)-1,3-thiazol-2-yl]ethyl}cyclohexane carboxylic acid]"
9,0.594,"COc1ccnc(Nc2cc(C)nc(-c3cnc(C(C)(O)[C@H]4CC[C@H](C(=O)O)CC4)s3)c2)n1 (single isomer, unassigned) [Example 4.9, (trans)-4-((R or S)-1-hydroxy-1-(5-{4-[(4-methoxypyrimidin-2-yl)amino]-6-methylpyridin-2-yl}-1,3-thiazol-2-yl)ethyl]cyclohexane carboxylic acid]"
10,29.3,"Cc1cc(Nc2cc(C)ccn2)cc(-c2cnc(C(C)(O)C3CCC(C(=O)O)CC3)s2)c1 (single isomer, unassigned) [Example 4.15, (trans)-4-((R or S)-[1-hydroxy-1-(5-{3-methyl-5-[(4-methylpyridin-2-yl)amino]phenyl}-1,3-thiazol-2-yl)ethyl]cyclohexanecarboxylic acid]"
11,6.91,"Cc1cc(Nc2nccc(C)n2)cc(-c2cnc(C3(O)CCC(C(=O)O)C(C)(C)C3)s2)n1 (single isomer, unassigned) [Example 4.16, (1S,4R or 1R,4S)-4-hydroxy-2,2-dimethyl-4-(5-{6-methyl-4-[(4-methylpyrimidin-2-yl)amino]pyridin-2-yl}-1,3-thiazol-2-yl)cyclohexane-carboxylic acid]"
12,1.31,"Cc1cc(Nc2nccc(C)n2)cc(-c2cnc(C(C)(O)[C@H]3CC[C@H](C(=O)O)CC3)s2)n1 (single isomer, unassigned) [Example 4.11, (trans)-4-((R or S)-1-hydroxy-1-(5-{6-methyl-4-[(4-methylpyrimidin-2-yl)amino]pyridin-2-yl}-1,3-thiazol-2-yl)ethyl]cyclohexane carboxylic acid]"
13,4.13,"COc1ncc(Nc2nccc(C(F)(F)F)n2)cc1-c1cnc([C@@]2(O)CC[C@H](C(=O)O)C(C)(C)C2)s1 (single isomer, unassigned) [Example 4.19, (1S,4R or 1R,4S)-4-hydroxy-4-[5-(2-methoxy-5-{[4-(trifluoromethyl)pyrimidin-2-yl]amino}pyridin-3-yl)-1,3-thiazol-2-yl]-2,2-dimethylcyclohexane carboxylic acid]"
